Data set [1] relates to zebrafish embryos.
Experimental: Transgenic zebrafish (fli-1:EGFP) were from the Model Animal Research Center of Nanjing University. Adult zebrafish aged less than 1 year were used for experiment and fed at a water pH value of 7±0.2, a temperature around 28° C. and a ratio of illumination to darkness of 14 h:10 h, and with Artemia salina eggs twice a day. Three zebrafish, one female, two males, were placed in a spawning box the night before and eggs were collected the next morning. Fish eggs were placed in an embryo culture medium (prepared with 0.2 g/L of sea salt) and cultured at 28° C.
Zebrafish embryos were cultured in 24-well plates with 10 embryos per well at 2 hpf in a dosing manner, drug solutions of the above concentrations in the table were separately added, termination was conducted at 8 hpf, and the embryos were washed and transferred to an egg solution for continuous culture to 72 hpf. Dead embryos were cleaned up in time. Each experiment was conducted in triplicate.
A phenotype of malformation was observed, the number of all abnormal zebrafish where the malformation was present was recorded and a malformation rate and a rescue rate of each group were calculated. Morphological defects, a heart rate, cardiac morphology and other indicators were observed and evaluated by an SMZ745T inverted stereomicroscope.
In data set [2] the test system is zebrafish embryos. The note with it: 30 mM HCHO.
For data set [3], the system named is zebrafish embryos. This is another data set of the same source.
Experimental: Transgenic zebrafish (fli-1:EGFP) were from the Model Animal Research Center of Nanjing University. Adult zebrafish aged less than 1 were used for experiment and fed at a water pH value of 7±0.2, a temperature around 28° C. and a ratio of illumination to darkness of 14 h:10 h, and with Artemia salina eggs twice a day. Three zebrafish, one female, two males, were placed in a spawning box the night before and eggs were collected the next morning. Fish eggs were placed in an embryo culture medium (prepared with 0.2 g/L of sea salt) and cultured at 28° C. […] Dead embryos were cleaned up in time. A phenotype of malformation was observed, the number of all abnormal zebrafish where the malformation was present was recorded and a malformation rate and a rescue rate of each group were calculated. Morphological defects, a heart rate, cardiac morphology and other indicators were observed and evaluated by an SMZ745T inverted stereomicroscope.
Data set [4] deals with zebrafish embryos. The procedure: A table was listed below for details.
5-Selected concentrations of methyltetrahydrofolate in the experiment were recorded in the table.
This is another data set of the same source.

Read-outs that look alike come from different tables or passages of the source.

Experimental findings from patent US20230043678A1, “USE OF 5-METHYLTETRAHYDROFOLATE” (priority 2019, published 2023) are described below.

On to `CCO` [EtOH, ethanol], for which, in data set [1] ([…] EtOH), the survival rate entry was “significantly different from that of the control group”. In data set [1] (zebrafish, in vivo), the heart rate result is given as “led to a malformed phenotype of bradycardia in zebrafish embryos”, the “lower intestinal network blood vessels” value was “led to developmental disorders of lower intestinal network blood vessels of the zebrafish” and the pericardium edema result is reported as “led to a malformed phenotype of pericardium edema in zebrafish embryos”.

Turning to `C=O` [HCHO, formaldehyde], in data set [2], the “lethality and teratogenicity to zebrafish” value was “lethal but not teratogenic to zebrafish”; the “pericardium edema and heart rate (48 hpf), body length (72 hpf)” value was “had no effect on the pericardium edema, the heart rate and the body length of the zebrafish”; the “survival rate of embryos” value is “severely lead to a low survival rate of embryos”. Further, the embryo development result in data set [2] (8 hpf) was “delayed development of the zebrafish embryos”. The “heart shape and lower intestinal network blood vessels” value in data set [2] (72 hpf) is “normal heart shape and normal development of lower intestinal network blood vessels”.

Consider `CN(Cc1cnc2nc(N)nc(N)c2n1)c1ccc(C(=O)N[C@@H](CCC(=O)O)C(=O)O)cc1` [MTX, methotrexate], for which the “pericardium edema and 10 s heart rate (48 hpf), body length (72 hpf)” value in data set [3] (1.5 mM MTX) is “seriously led to pericardium edema, bradycardia, and a shortened body length of zebrafish”. Moreover, the “survival rate of embryos” value in data set [3] (1.5 mM MTX, 6-10 hpf) is on record as “lower than 0.1”. Moreover, the embryo phenotype result was “led to hypoplasia and deformities such as small heads and short tails of zebrafish” in data set [3] (1.5 mM MTX, 24 hpf); “led to body bending, intersegmental vascular hypoplasia and pericardium edema of zebrafish” in data set [3] (1.5 mM MTX, 48 hpf); “led to a short body length and lower intestinal network vessel hypoplasia” in data set [3] (1.5 mM MTX, 72 hpf). The Malformation rate in data set [3] (MTX group (1.5 mM)) came out at 100%.

On to `COc1cccc2c1cc([N+](=O)[O-])c1c(C(=O)O)cc3c(c12)OCO3` [aristolochic acid A], for which, in data set [4] (1-5 μM aristolochic acid A), the “pericardium edema and 10 s heart rate (48 hpf), body length (72 hpf)” value is “seriously led to pericardium edema, bradycardia, and a shortened body length in zebrafish”. For the same molecule, the embryo phenotype entry in data set [4] (1-5 μM aristolochic acid A, 8 hpf and 24 hpf) is “did not lead to obvious embryonic development delay, malformation and death”; in data set [4] (aristolochic acid A, 72 hpf), “showed a complete deficiency of development of the lower intestinal network blood vessels of the zebrafish”; in data set [4] (aristolochic acid A, increasing concentration, 48 hpf), “gradually showed pericardium edema, a slowed heart rate, curved bodies, a disappeared systemic blood flow, hematocele, yolk sac opacity”. The “survival rate of embryos” value in data set [4] (2-5 μM aristolochic acid A) was “seriously reduce a survival rate of embryos”.
